Test results published in ChEMBL document CHEMBL1121604, “Cerebrovasodilatation through selective inhibition of the enzyme carbonic anhydrase. 2. Imidazo[2,1-b]thiadiazole and imidazo[2,1-b]thiazolesulfonamides” (J Med Chem, 1980).

Tests used:
[1] = pKa of the compound was determined; type: physicochemical
Mus musculus [2] = species on record: Mus musculus; assay: Anticonvulsant potency in mice relative to compound UK-12130 (ED50 of compound 24/compound); type: functional
Mus musculus [3] = assay: Protective dose against maximal electroshock in mice after peroral administration; type: functional; settings: po
[4] = Partition coefficient (logP); type: physicochemical; settings: octanol/water

`NS(=O)(=O)c1nn2cc(-c3ccccc3)nc2s1` gave a pKa [1] of 7.12, a Potency ratio (Mus musculus [2]) of 0.6 and an ED50 (Mus musculus [3]) of 16 mg/kg.

`NS(=O)(=O)c1nn2c(-c3ccccc3)cnc2s1` showed a Potency ratio (Mus musculus [2]) of 0.4 and an ED50 (Mus musculus [3]) greater than 16 mg/kg.

`CC(C)(C)c1cn2nc(S(N)(=O)=O)sc2n1` showed a pKa [1] of 6.94, a Potency ratio (Mus musculus [2]) of 3.2 and an ED50 (Mus musculus [3]) of 2.6 mg/kg.

Compound `COc1ccc(-c2cn3nc(S(N)(=O)=O)sc3n2)cc1` has a Potency ratio (Mus musculus [2]) of less than 0.6 and an ED50 (Mus musculus [3]) greater than 16 mg/kg.

`CC(=O)Nc1ccc(-c2cn3nc(S(N)(=O)=O)sc3n2)cc1` gave a Potency ratio (Mus musculus [2]) of less than 0.4 and an ED50 (Mus musculus [3]) greater than 16 mg/kg.

`NS(=O)(=O)c1nn2cc(-c3ccc(O)cc3)nc2s1` gave a pKa [1] of 8.16, a Potency ratio (Mus musculus [2]) of 0.9 and an ED50 (Mus musculus [3]) of 10 mg/kg.

`NS(=O)(=O)c1nn2cc(-c3ccccc3O)nc2s1` showed a Potency ratio (Mus musculus [2]) of less than 0.6 and an ED50 (Mus musculus [3]) greater than 16 mg/kg.

In the case of `CC(C)(C)c1cn2cc(S(N)(=O)=O)sc2n1`, the pKa [1] is reported as 8.37, the Potency ratio (Mus musculus [2]) is reported as 1.7 and the ED50 (Mus musculus [3]) is reported as 7 mg/kg.

For `Cc1ccc(-c2cn3nc(S(N)(=O)=O)sc3n2)cc1`, the Potency ratio (Mus musculus [2]) was less than 0.6 and the ED50 (Mus musculus [3]) was greater than 16 mg/kg.

With `NS(=O)(=O)c1nn2cc(-c3cccs3)nc2s1` the Potency ratio (Mus musculus [2]) was less than 0.4 and the ED50 (Mus musculus [3]) was greater than 16 mg/kg.

In the case of `Br.Cc1cn2nc(S(N)(=O)=O)sc2n1`, the Potency ratio (Mus musculus [2]) is reported as 2.2 and the ED50 (Mus musculus [3]) is reported as 5 mg/kg.

`Br.CCc1nc2sc(S(N)(=O)=O)nn2c1C` showed a Potency ratio (Mus musculus [2]) of 1 and an ED50 (Mus musculus [3]) of 8 mg/kg.

For `Br.NS(=O)(=O)c1cn2ccnc2s1`, the Potency ratio (Mus musculus [2]) was 0.7 and the ED50 (Mus musculus [3]) was 16 mg/kg.

`Br.NS(=O)(=O)C1=NN2C(=NC3CCCCC32)S1` (configuration not stated) showed a Potency ratio (Mus musculus [2]) of less than 0.5 and an ED50 (Mus musculus [3]) greater than 16 mg/kg.

Compound `Br.NS(=O)(=O)c1nn2ccnc2s1` has a Potency ratio (Mus musculus [2]) of 1.4 and an ED50 (Mus musculus [3]) of 8 mg/kg.

With `Br.CCc1cn2nc(S(N)(=O)=O)sc2n1` the Potency ratio (Mus musculus [2]) was 1.6 and the ED50 (Mus musculus [3]) was 5 mg/kg.

`Br.Cc1cn2cc(S(N)(=O)=O)sc2n1` showed a Potency ratio (Mus musculus [2]) of 1.3 and an ED50 (Mus musculus [3]) of 6 mg/kg.

`Br.Cc1nc2sc(S(N)(=O)=O)nn2c1C` gave a Potency ratio (Mus musculus [2]) of 0.6 and an ED50 (Mus musculus [3]) of 12 mg/kg.

In the case of `Br.NS(=O)(=O)c1nn2cc(C34CC5CC(CC(C5)C3)C4)nc2s1`, the Potency ratio (Mus musculus [2]) is reported as 1 and the ED50 (Mus musculus [3]) is reported as 6 mg/kg.

In the case of `CC(=O)Nc1nnc(S(N)(=O)=O)s1` [ACETAZOLAMIDE], the ED50 (Mus musculus [3]) is reported as 36 mg/kg.

With `CC(=O)/N=c1/sc(S(N)(=O)=O)nn1C` [METHAZOLAMIDE] the logP [4] was 0.2, the pKa [1] was 7.2 and the Potency ratio (Mus musculus [2]) was 0.75. The ED50 (Mus musculus [3]) was 12 mg/kg.
